# Assay results as given in ChEMBL document CHEMBL3098039, “Urea/oxalamide tethered β-lactam-7-chloroquinoline conjugates: synthesis and in vitro antimalarial evaluation” (Eur J Med Chem, 2014).
# Test system: Plasmodium falciparum
# Assay: Antiplasmodial activity against chloroquine-resistant ring stage Plasmodium falciparum W2 assessed as parasitemia after 48 hrs by flow cytometry
# Type: functional, organism-based
# Details: W2, 48 h
row,SMILES,IC50
1,O=C(NCCCCCCNc1ccnc2cc(Cl)ccc12)N[C@H]1C(=O)N(C2CCCCC2)[C@H]1/C=C/c1ccccc1 (racemic),52.1 nM
2,CCOC(=O)N[C@@H]1C(=O)N(C2CCCCC2)[C@@H]1/C=C/c1ccccc1 (racemic),> 1000 nM
3,O=C(NCCCNc1ccnc2cc(Cl)ccc12)N[C@H]1C(=O)N(C2CCCCC2)[C@H]1/C=C/c1ccccc1 (relative stereo),73 nM
4,O=C(NCCCCNc1ccnc2cc(Cl)ccc12)C(=O)N[C@@H]1C(=O)N(c2ccc(Cl)cc2)[C@@H]1/C=C/c1ccccc1 (racemic),82.2 nM
5,O=C(NCCCCCCNc1ccnc2cc(Cl)ccc12)C(=O)N[C@@H]1C(=O)N(C2CCCCC2)[C@@H]1/C=C/c1ccccc1 (racemic),35 nM
6,Cc1ccc(N2C(=O)[C@H](NC(=O)NCCCNc3ccnc4cc(Cl)ccc34)[C@@H]2/C=C/c2ccccc2)cc1 (racemic),51 nM
7,Cc1ccc(N2C(=O)[C@@H](NC(=O)C(=O)NCCNc3ccnc4cc(Cl)ccc34)[C@H]2/C=C/c2ccccc2)cc1 (racemic),44.8 nM
8,O=C(NCCNc1ccnc2cc(Cl)ccc12)C(=O)N[C@@H]1C(=O)N(C2CCCCC2)[C@@H]1/C=C/c1ccccc1 (racemic),61.3 nM
9,O=C(NCCCCNc1ccnc2cc(Cl)ccc12)N[C@H]1C(=O)N(C2CCCCC2)[C@H]1/C=C/c1ccccc1 (relative stereo),193 nM
10,CCOC(=O)C(=O)N[C@@H]1C(=O)N(c2ccc(C)cc2)[C@@H]1/C=C/c1ccccc1 (racemic),> 1000 nM
11,Cc1ccc(N2C(=O)[C@H](NC(=O)NCCNc3ccnc4cc(Cl)ccc34)[C@@H]2/C=C/c2ccccc2)cc1 (mixture of isomers),53.1 nM
12,Cc1ccc(N2C(=O)[C@@H](NC(=O)C(=O)NCCCNc3ccnc4cc(Cl)ccc34)[C@H]2/C=C/c2ccccc2)cc1 (racemic),88.7 nM
13,CCNCc1cc(Nc2ccnc3cc(Cl)ccc23)ccc1O [DESETHYL AMODIAQUINE],401 nM
14,CCOC(=O)N[C@@H]1C(=O)N(c2ccc(C)cc2)[C@@H]1/C=C/c1ccccc1 (racemic),> 1000 nM
15,Cc1ccc(N2C(=O)[C@H](NC(=O)NCCCCNc3ccnc4cc(Cl)ccc34)[C@@H]2/C=C/c2ccccc2)cc1 (mixture of isomers),149 nM
16,CCOC(=O)C(=O)N[C@@H]1C(=O)N(C2CCCCC2)[C@@H]1/C=C/c1ccccc1 (racemic),> 1000 nM
17,Cc1ccc(N2C(=O)[C@H](NC(=O)NCCCCCCNc3ccnc4cc(Cl)ccc34)[C@@H]2/C=C/c2ccccc2)cc1 (racemic),42.4 nM
18,C[C@@H]1CC[C@H]2[C@@H](C)C(=O)O[C@@H]3O[C@@]4(C)CC[C@@H]1[C@]32OO4 [ARTEMISININ],10.6 nM
19,O=C(NCCCCNc1ccnc2cc(Cl)ccc12)C(=O)N[C@@H]1C(=O)N(C2CCCCC2)[C@@H]1/C=C/c1ccccc1 (mixture of isomers),68.6 nM
20,O=C(NCCCCCCNc1ccnc2cc(Cl)ccc12)C(=O)N[C@@H]1C(=O)N(c2ccc(Cl)cc2)[C@@H]1/C=C/c1ccccc1 (racemic),50.8 nM
21,O=C(NCCCNc1ccnc2cc(Cl)ccc12)C(=O)N[C@@H]1C(=O)N(C2CCCCC2)[C@@H]1/C=C/c1ccccc1 (mixture of isomers),121 nM
22,CCOC(=O)C(=O)N[C@@H]1C(=O)N(c2ccc(Cl)cc2)[C@@H]1/C=C/c1ccccc1 (relative stereo),> 1000 nM
23,O=C(NCCNc1ccnc2cc(Cl)ccc12)N[C@H]1C(=O)N(C2CCCCC2)[C@H]1/C=C/c1ccccc1 (mixture of isomers),157 nM

# Test system: not listed separately
# Assay: Cytotoxicity against human HeLa cells assessed as cell viability at 1 uM after 24 hrs by trypan blue assay relative to untreated control
# Type: cell-based
# Details: read-out: Activity
row,SMILES,"viability at 24 h, 1 µM"
1,COc1cccc2c1C(=O)c1c(O)c3c(c(O)c1C2=O)C[C@@](O)(C(=O)CO)C[C@@H]3O[C@H]1C[C@H](N)[C@H](O)[C@H](C)O1 [DOXORUBICIN],62%

# Test system: not listed separately
# Assay: Cytotoxicity against human HeLa cells assessed as cell viability at 10 uM after 24 hrs by trypan blue assay relative to untreated control
# Type: cell-based
# Details: read-out: Activity
row,SMILES,"viability at 24 h, 10 µM"
1,O=C(NCCCCCCNc1ccnc2cc(Cl)ccc12)C(=O)N[C@@H]1C(=O)N(C2CCCCC2)[C@@H]1/C=C/c1ccccc1 (racemic),90%
2,Cc1ccc(N2C(=O)[C@H](NC(=O)NCCCCCCNc3ccnc4cc(Cl)ccc34)[C@@H]2/C=C/c2ccccc2)cc1 (racemic),90%
